pIC50: −log10 of the molar value.

In this experiment the target is T1, human neutrophil elastase (HNE) (Homo sapiens, UniProt P08246).
T1 construct: purchased Sigma E8140
T1 sequence (P08246 30-247 limits assumed): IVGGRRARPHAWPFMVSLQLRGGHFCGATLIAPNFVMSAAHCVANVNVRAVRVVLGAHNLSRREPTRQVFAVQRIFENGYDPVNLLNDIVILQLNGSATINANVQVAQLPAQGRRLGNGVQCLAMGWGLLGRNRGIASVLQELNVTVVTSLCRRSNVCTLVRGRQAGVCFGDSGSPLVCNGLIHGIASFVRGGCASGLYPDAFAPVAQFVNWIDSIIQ
The experiment can be described thus: HNE Enzyme Assay (fluorogenic peptide substrate MeOSuc-Ala-Ala-Pro-Val-AMC). The experiment is classed as biochemical. Conditions: human leukocyte elastase 0.00072 U/mL, substrate 100 μM, 25° C., 30 minutes, at least two separate experiments; read-out: HNE inhibition (IC50 values). How it is done:
Compounds of this invention were tested for potency in a human neutrophil elastase (HNE) enzyme activity assay.
Assays were performed in 96-well plates in a total assay volume of 100 μL. The final concentration of elastase enzyme (human leukocyte elastase, Sigma E8140) was 0.00072 U/mL. The peptide substrate (MeOSuc-Ala-Ala-Pro-Val-AMC, Calbiochem #324740) was used at a final concentration of 100 μM. The final concentration of DMSO was 1% in the assay buffer (0.05M Tris.HCl, 0.1M NaCl, 0.1M CaCl2, 0.0005% Brij-35, pH 7.5). The enzymatic reaction was started by addition of the enzyme and incubated at 25° C. for 30 minutes. After incubation, the reaction was stopped by addition of soybean trypsin inhibitor (Sigma T9003) at a final concentration of 50 μg/well. Fluorescence was measured using a Molecular Devices fluorescence plate reader using 380 nm excitation and 460 nm emission wavelengths.
A concentration response to each compound was performed and the effect of compound in each experiment was expressed as a percentage inhibition of the control enzyme fluorescence. Dose response curves were plotted and compound potency (IC50) was determined. Compounds were tested in at least two separate experiments.
On to `Cc1c(-c2ccnn2-c2ccc(C#N)cc2)n(C(=O)NC(C)c2nc(C[N+](C)(C)C)cs2)c(=O)n1-c1cccc(C(F)(F)F)c1` (racemic) [Example 85, ±[2-(1-{[5-[2-(4-Cyano-phenyl)-2H-pyrazol-3-yl]-4-methyl-2-oxo-3-(3-trifluoromethyl-phenyl)-2,3-dihydro-imidazole-1-carbonyl]-amino}-ethyl)-thiazol-4-ylmethyl]-trimethyl-ammonium benzene sulfonate], for which the pIC50 is more than 9.00.

In the case of `Cc1c(-c2ccnn2-c2ccc(C#N)cc2)n(C(=O)N[C@H]2CC[C@H](CN(C)C)CC2)c(=O)n1-c1cccc(C(F)(F)F)c1` [Example 1, 5-[2-(4-Cyano-phenyl)-2H-pyrazol-3-yl]-4-methyl-2-oxo-3-(3-trifluoromethyl-phenyl)-2,3-dihydro-imidazole-1-carboxylic acid trans-(4-dimethylaminomethyl-cyclohexyl)-amide], the pIC50 is more than 9.00.

`Cc1c(-c2ccnn2-c2ccc(C#N)cc2)n(C(=O)N[C@H]2CCC[C@@H]2OCc2ccccc2)c(=O)n1-c1cccc(C(F)(F)F)c1` [Example 2, 5-[2-(4-Cyano-phenyl)-2H-pyrazol-3-yl]-4-methyl-2-oxo-3-(3-trifluoromethyl-phenyl)-2,3-dihydro-imidazole-1-carboxylic acid ((1S,2S)-2-benzyloxy-cyclopentyl)-amide]: the pIC50 is 8.00 to 9.00.

In the case of `Cc1c(-c2ccnn2-c2ccc(C#N)cc2)n(C(=O)NC2CCN(C(=O)OCc3ccccc3)CC2)c(=O)n1-c1cccc(C(F)(F)F)c1` [Example 3, 4-{[5-[2-(4-Cyano-phenyl)-2H-pyrazol-3-yl]-4-methyl-2-oxo-3-(3-trifluoromethyl-phenyl)-2,3-dihydro-imidazole-1-carbonyl]-amino}-piperidine-1-carboxylic acid benzyl ester], the negative logarithm of the IC50 (pIC50) is more than 9.00.

Regarding `Cc1c(-c2ccnn2-c2ccc(C#N)cc2)n(C(=O)NC2CCN(C(=O)C(F)(F)F)CC2)c(=O)n1-c1cccc(C(F)(F)F)c1` [Example 4, 5-[2-(4-Cyano-phenyl)-2H-pyrazol-3-yl]-4-methyl-2-oxo-3-(3-trifluoromethyl-phenyl)-2,3-dihydro-imidazole-1-carboxylic acid [1-(2,2,2-trifluoro-acetyl)-piperidin-4-yl]-amide], the negative-log IC50 (pIC50) is more than 9.00.

For `Cc1c(-c2ccnn2-c2ccc(C#N)cc2)n(C(=O)N[C@@H](C)c2ccncc2)c(=O)n1-c1cccc(C(F)(F)F)c1` [Example 5, 5-[2-(4-Cyano-phenyl)-2H-pyrazol-3-yl]-4-methyl-2-oxo-3-(3-trifluoromethyl-phenyl)-2,3-dihydro-imidazole-1-carboxylic acid ((S)-1-pyridin-4-yl-ethyl)-amide], the pIC50 is more than 9.00.

Consider `Cc1c(-c2ccnn2-c2ccc(C#N)cc2)n(C(=O)N[C@H](C)c2ccncc2)c(=O)n1-c1cccc(C(F)(F)F)c1` [Example 6, 5-[2-(4-Cyano-phenyl)-2H-pyrazol-3-yl]-4-methyl-2-oxo-3-(3-trifluoromethyl-phenyl)-2,3-dihydro-imidazole-1-carboxylic acid ((R)-1-pyridin-4-yl-ethyl)-amide], for which the pIC50 is more than 9.00.

For `COc1ccc(CN2CC3C(C2)C3NC(=O)n2c(-c3ccnn3-c3ccc(C#N)cc3)c(C)n(-c3cccc(C(F)(F)F)c3)c2=O)cc1` (stereo not shown) [Example 7, 5-[2-(4-Cyano-phenyl)-2H-pyrazol-3-yl]-4-methyl-2-oxo-3-(3-trifluoromethyl-phenyl)-2,3-dihydro-imidazole-1-carboxylic acid [3-(4-methoxy-benzyl)-3-aza-bicyclo[3.1.0]hex-6-yl]-amide], the pIC50 is more than 9.00.

`Cc1c(-c2ccnn2-c2ccc(C#N)cc2)n(C(=O)N[C@H]2CC[C@H](NC(=O)OC(C)(C)C)CC2)c(=O)n1-c1cccc(C(F)(F)F)c1` [Example 8, (Trans-4-{[5-[2-(4-cyano-phenyl)-2H-pyrazol-3-yl]-4-methyl-2-oxo-3-(3-trifluoromethyl-phenyl)-2,3-dihydro-imidazole-1-carbonyl]-amino}-cyclohexyl)-carbamic acid tert-butyl ester]: the negative-log IC50 (pIC50) is more than 9.00.

On to `Cc1c(-c2ccnn2-c2ccc(C#N)cc2)n(C(=O)N[C@H]2CC[C@H](N(C)C)CC2)c(=O)n1-c1cccc(C(F)(F)F)c1` [Example 9, 5-[2-(4-Cyano-phenyl)-2H-pyrazol-3-yl]-4-methyl-2-oxo-3-(3-trifluoromethyl-phenyl)-2,3-dihydro-imidazole-1-carboxylic acid (trans-4-dimethylamino-cyclohexyl)-amide], for which the pIC50 is more than 9.00.

Consider `Cc1c(-c2ccnn2-c2ccc(C#N)cc2)n(C(=O)N[C@@H]2C[C@@H]3CN(C(=O)OC(C)(C)C)C[C@@H]3C2)c(=O)n1-c1cccc(C(F)(F)F)c1` [Example 10, (3aS,5R,6aR)-5-{[5-[2-(4-Cyano-phenyl)-2H-pyrazol-3-yl]-4-methyl-2-oxo-3-(3-trifluoromethyl-phenyl)-2,3-dihydro-imidazole-1-carbonyl]-amino}-hexahydro-cyclopenta[c]pyrrole-2-carboxylic acid tert-butyl ester], for which the pIC50 is more than 9.00.

In the case of `Cc1c(-c2ccnn2-c2ccc(C#N)cc2)n(C(=O)N[C@@H](C)C(=O)N2CCN(C)CC2)c(=O)n1-c1cccc(C(F)(F)F)c1` [Example 11, 5-[2-(4-Cyano-phenyl)-2H-pyrazol-3-yl]-4-methyl-2-oxo-3-(3-trifluoromethyl-phenyl)-2,3-dihydro-imidazole-1-carboxylic acid [(S)-1-methyl-2-(4-methyl-piperazin-1-yl)-2-oxo-ethyl]-amide], the pIC50 is more than 9.00.

Take `Cc1c(-c2ccnn2-c2ccc(C#N)cc2)n(C(=O)N[C@H]2C[C@@H]3CN(C(=O)OC(C)(C)C)C[C@@H]3C2)c(=O)n1-c1cccc(C(F)(F)F)c1` [Example 12, (3aR,5S,6aS)-5-{[5-[2-(4-Cyano-phenyl)-2H-pyrazol-3-yl]-4-methyl-2-oxo-3-(3-trifluoromethyl-phenyl)-2,3-dihydro-imidazole-1-carbonyl]-amino}-hexahydro-cyclopenta[c]pyrrole-2-carboxylic acid tert-butyl ester]: the pIC50 is more than 9.00.

In the case of `Cc1c(-c2ccnn2-c2ccc(C#N)cc2)n(C(=O)N[C@@H](C)C(=O)NC2CCN(C)CC2)c(=O)n1-c1cccc(C(F)(F)F)c1` [Example 13, 5-[2-(4-Cyano-phenyl)-2H-pyrazol-3-yl]-4-methyl-2-oxo-3-(3-trifluoromethyl-phenyl)-2,3-dihydro-imidazole-1-carboxylic acid [(S)-1-(1-methyl-piperidin-4-ylcarbamoyl)-ethyl]-amide], the negative-log IC50 (pIC50) is more than 9.00.

Consider `Cc1c(-c2ccnn2-c2ccc(C#N)cc2)n(C(=O)N[C@@H](C)c2ccc(CN(C)C)cc2)c(=O)n1-c1cccc(C(F)(F)F)c1` [Example 14, 5-[2-(4-Cyano-phenyl)-2H-pyrazol-3-yl]-4-methyl-2-oxo-3-(3-trifluoromethyl-phenyl)-2,3-dihydro-imidazole-1-carboxylic acid [(S)-1-(4-dimethylaminomethyl-phenyl)-ethyl]-amide], for which the pIC50 is more than 9.00.

Consider `Cc1c(-c2ccnn2-c2ccc(C#N)cc2)n(C(=O)NC2CCN(C(=O)CCN(C)C)CC2)c(=O)n1-c1cccc(C(F)(F)F)c1` [Example 15, 5-[2-(4-Cyano-phenyl)-2H-pyrazol-3-yl]-4-methyl-2-oxo-3-(3-trifluoromethyl-phenyl)-2,3-dihydro-imidazole-1-carboxylic acid [1-(3-dimethylamino-propionyl)-piperidin-4-yl]-amide], for which the pIC50 is more than 9.00.

As a reminder, the pIC50 is the negative decadic logarithm of the IC50, by convention in mol/L.

Source of the values: patent US10023558B2, “Compounds” (CHIESI FARMACEUTICI S.P.A., priority 2016, dated 2018).
